How the values were obtained:
rat calvarial defect [1] = assay: Rat calvarial defect model, drug in calcium phosphate cement suspended in demineralized bone matrix putty; assay type: in vivo, female Sprague Dawley rats; conditions: 2.6 mm defect, eight weeks
Description: The rat calvarial defect model is a widely used model through which the ability of a treatment agent to induce bone formation is assessed (Aghaloo et al., The effect of NELL1 and bone morphogenetic protein-2 on calvarial bone regeneration, J. Oral Maxillofac. Surg. 2010: 68:300-308; Mark et al., Repair of calvarial nonunions by osteogenin, a bone-inductive protein, Plast. Reconstr. Surg. 1990: 86:623-30).
Bone defects are created by removal of bone from the cranium of female Sprague Dawley rats by a bone trephine (cranial defect). Cranial defects are 2.6 mm in diameter and the cranium approximately 1 mm thick. A matrix of approximately 2 mm thickness is applied to the defect. Thus the dosing volume for each defect is calculated as π*r^2*matrix thickness=3.14*1.3^2*2=10.61 μl and rounded to 11 μl for purposes of dose calculation.
EXAMPLE 2C is tested at seven doses with five rats in each group. These are 3, 10, 30, 100 and 300 μg/ml and 1 and 3 mg/ml. A negative control group treated with dosing matrix containing no drug (Vehicle) as well as a positive control group treated with 50 μg/ml recombinant human bone morphogenetic protein 2 (BMP-2) are also included in the study. […]
The area measured each week is compared to that of the first week and the degree of repair calculated by the following formula: (original area−current area)/original area*100 […]

rat calvarial defect [2] = assay: Rat calvarial defect model, drug-cement loaded into intact demineralized bone matrix; assay type: in vivo, female Sprague Dawley rats; conditions: 5.0 mm defect; 10 mg/gm of cement; four weeks; FIG. 4
Description: Bone defects are created by removal of bone from the cranium of female Sprague Dawley rats by a bone trephine (cranial defect). Cranial defects are 5.0 mm in diameter and the cranium approximately 1 mm thick.
EXAMPLE 2E′ is delivered inside calcium phosphate cement that, after loading with drug set inside three voids each of approximately 1.0 mm in diameter drilled into a solid demineralized bone matrix circular block of 5.0 mm in diameter and 1 mm thickness. EXAMPLE 2E′ is tested at 10 mg/gm of cement. A negative control group treated with dosing matrix containing no drug (Vehicle) is also included in the study.
Dosing solutions are made from a 5 mg/ml EXAMPLE 2E′ stock which is made by dissolving 2.08 mg of neat EXAMPLE 2E′ in 416 μl of 100% ethanol.
The volume of each dosing void is π*r^2*matrix thickness=3.14*0.5^2*1=0.8 μl. Thus a 5 mm solid demineralized matrix with three voids filled with cement contains 2.4 μl of loading cement. The cement that is used weighs 107 mg for 100 μl volume. Thus 2.4 ul of volume is occupied by 2.6 mg of cement. A 10 mg/gm dosing cement provides 26 ug of EXAMPLE 2E′ for each 5 mm intact demineralized bone matrix block. […]
The area measured each week is compared to that of the first week and the degree of repair calculated by the following formula: (original area−current area)/original area*100

osteoporotic femur = assay: Bone density of osteoporotic femur after osteotomy with drug-cement insert in ovariectomized rats; assay type: in vivo, Female Sprague Dawley rats
Description: Dosing solutions are made from a 5 mg/ml Example 2E' stock which is made by dissolving 2.08 mg of neat Example 2E' in 416 μl of 100% ethanol. The dosing solution for Example 2E' was made by adding 44.4 μL of the 5 mg/ml stock to 22.2 mg of calcium phosphate cement powder. The Vehicle dosing solution was made by adding 50.4 μl of ethanol containing no Example 2E' to 25.2 mg of calcium phosphate cement powder. After the ethanol has been vented off, the cement is wetted with a setting solution and mixed thoroughly for 1 minute as the cement begins to set. The cement is separated into five aliquots and placed on a glass microscope slide. […] After obtaining the CT image the cross sectional density of the bone 3 mm dorsal to the implant site is measured in three places and the measurements averaged. The density of the phantom is measured at the same time and is compared to the phantom measurement on week 0. […] For example the density of the femur of a vehicle treated rat imaged on week 0 is measured at 3028, 3597 and 3329 units (average=3318) and the phantom measured 4209 units. […] The relative density on bone at week 3 compared to week 0 is then calculated as: average week 3normalized/average week 0*100=3378/3318*100=101.8% The mean change in bone density of both groups after three weeks of treatment is shown in FIG. 5. […]

[3] = target: T1, Human Prostanoid EP4 Receptor (Homo sapiens, UniProt P35408); assay: Radioligand binding assay, agonist site of human prostanoid EP4 receptor in transfected HEK-293 cells; conditions: for hEP4 receptor binding, % @100: @100, printed in the IC50 (nM) column
T1 construct: expressed in transfected cells; host or cells: HEK-293 cells (membrane homogenates)
Description: Radioligand Binding Assay for the Evaluation of the Affinity of Compounds for the Agonist Site of the Human Prostanoid EP4 Receptor in Transfected HEK-293 Cells
Following incubation, the samples are filtered rapidly under vacuum through glass fiber filters (GF/B, Packard) presoaked with 0.3% PEI and rinsed several times with ice-cold 50 mM Tris-HCl using a 96-sample cell harvester (Unifilter, Packard). The filters are dried then counted for radioactivity in a scintillation counter (Topcount, Packard) using a scintillation cocktail (Microscint 0, Packard).

T1 sequence (P35408 whole entry): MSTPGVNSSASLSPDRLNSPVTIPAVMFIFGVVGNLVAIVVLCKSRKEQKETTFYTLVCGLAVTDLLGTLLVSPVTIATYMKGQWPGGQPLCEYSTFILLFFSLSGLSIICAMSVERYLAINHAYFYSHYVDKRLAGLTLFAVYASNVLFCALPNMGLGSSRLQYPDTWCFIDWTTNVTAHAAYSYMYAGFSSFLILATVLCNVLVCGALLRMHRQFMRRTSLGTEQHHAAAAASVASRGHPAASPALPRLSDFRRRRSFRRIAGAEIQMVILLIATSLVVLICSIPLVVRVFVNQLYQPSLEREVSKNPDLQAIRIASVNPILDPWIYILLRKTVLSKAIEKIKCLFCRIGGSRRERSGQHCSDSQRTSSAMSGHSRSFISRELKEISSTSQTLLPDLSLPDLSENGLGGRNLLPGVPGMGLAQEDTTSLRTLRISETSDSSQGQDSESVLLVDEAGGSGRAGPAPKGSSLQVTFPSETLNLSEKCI

## CCCC#CCC(C)[C@H](O)/C=C/[C@H]1CCC(=O)N1CCCCCCC(=O)O (mixture of isomers) [3C′, 7-((2R)-2-((3S,4R/S,E)-3-hydroxy-4-methyldec-1-en-6-yn-1-yl)-5-oxopyrrolidin-1-yl)heptanoic acid]
other
  melting point: 104 to 105 °C

## CCC#CC[C@H](C)[C@H](O)/C=C/[C@H]1CCC(=O)N1CCCCCCC(=O)O [2E′, 7-((R)-2-((3S,4S,E)-3-hydroxy-4-methylnon-1-en-6-yn-1-yl)-5-oxopyrrolidin-1-yl)heptanoic acid]
Rat calvarial defect [1]; 3 mg/ml in cement-DBM putty 1:8, FIG. 2
  Healing of a calvarial bone defect: Accelerated Healing
Rat calvarial defect [2]
  Healing of a calvarial bone defect, loaded into intact demineralized bone matrix: Accelerated Healing
Osteoporotic femur; 10 mg/gm cement insert, three weeks, FIG. 5
  Bone density of osteoporotic femur: Increased Bone Density

## CC#CCC(C)[C@H](O)/C=C/[C@H]1CCC(=O)N1CCCCCCC(=O)O (mixture of isomers) [Example 1C′, 7-((2R)-2-((3S,4R/S,E)-3-hydroxy-4-methyloct-1-en-6-yn-1-yl)-5-oxopyrrolidin-1-yl)heptanoic acid]
[3]
  hEP4 receptor binding, % @100: 86% @100

## C[C@@H](CCCc1ccccc1)[C@H](O)/C=C/[C@H]1CC(F)(F)C(=O)N1CCCc1ccc(C(=O)O)s1 [Example 28C, 5-(3-((R)-3,3-difluoro-5-((3S,4S,E)-3-hydroxy-4-methyl-7-phenylhept-1-en-1-yl)-2-oxopyrrolidin-1-yl)propyl)thiophene-2-carboxylic acid]
Osteoporotic femur; 100 μg/gm or 300 μg/gm cement insert, twenty weeks, FIG. 6
  Bone density of osteoporotic femur: Increased Bone Density

## C[C@@H](CCCc1ccccc1)[C@H](O)/C=C/[C@H]1CC(F)(F)C(=O)N1CCCCCCC(=O)O [Example 6D, 7-((R)-3,3-difluoro-5-((3S,4S,E)-3-hydroxy-4-methyl-7-phenylhept-1-en-1-yl)-2-oxopyrrolidin-1-yl)heptanoic acid]
[3]; 0.5 nM [3H]PGE2, HEK-293 cell membrane homogenates, read-out: hEP4 receptor binding (nM) IC50
  IC50: 2.4 nM
[3]; 0.5 nM [3H]PGE2, HEK-293 cell membrane homogenates, read-out: hEP4 receptor binding (nM) Ki
  Ki: 0.89 nM

## CCC#CC[C@H](C)[C@H](O)/C=C/[C@H]1CC(F)(F)C(=O)N1CCCCCCC(=O)O [Example 2C, 7-((R)-3,3-difluoro-5-((3S,4S,E)-3-hydroxy-4-methylnon-1-en-6-yn-1-yl)-2-oxopyrrolidin-1-yl)heptanoic acid]
Rat calvarial defect [1]; 3 μg/ml to 3 mg/ml in cement-DBM putty 1:8, FIG. 1
  Healing of a calvarial bone defect: Accelerated Healing

## CC#CCC(C)[C@@H](O)/C=C/[C@H]1CCC(=O)N1CCCCCCC(=O)O (mixture of isomers) [Example 1D′, 7-((2R)-2-((3R,4R/S,E)-3-hydroxy-4-methyloct-1-en-6-yn-1-yl)-5-oxopyrrolidin-1-yl)heptanoic acid]
[3]
  hEP4 receptor binding, % @100: 11% @100

From patent US10729810B2, “Methods, systems, and compositions for promoting bone growth” (Cayman Chemical Company, Inc., priority 2013, dated 2020)
